From ChEMBL document CHEMBL1201861, “Genomics of Drug Sensitity in Cancer screening data, Wellcome Trust Sanger Institute”

Tests used:
Test in all cases: cells
KLE = format: functional, cell-based, Homo sapiens; conditions: Homo sapiens, KLE;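 further: growth inhibition of human KLE cells, read out with a cell viability assay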
Description: SANGER: Inhibition of human KLE cell growth in a cell viability assay.

SNB-75 = format: functional, cell-based, Homo sapiens; conditions: Homo sapiens, SNB-75;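 further: cell viability assay measuring growth inhibition of human SNB-75 cells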
Description: SANGER: Inhibition of human SNB75 cell growth in a cell viability assay.

MCF7 = format: functional, cell-based, Homo sapiens; conditions: Homo sapiens, MCF7;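 further: growth inhibition of human MCF7 cells, read out with a cell viability assay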
Description: SANGER: Inhibition of human MCF7 cell growth in a cell viability assay.

LoVo = format: functional, cell-based; conditions: Homo sapiens;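 further: growth inhibition of human LoVo cells, read out with a cell viability assay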
Description: SANGER: Inhibition of human LoVo cell growth in a cell viability assay.

DK-MG = format: functional, cell-based, Homo sapiens; conditions: Homo sapiens, DK-MG;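 further: growth inhibition of DK-MG cells, read out with a cell viability assay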
Description: SANGER: Inhibition of human DK-MG cell growth in a cell viability assay.

IGR-1 = format: functional, cell-based, Homo sapiens; conditions: Homo sapiens, IGR-1;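 further: growth inhibition of human IGR-1 cells, read out with a cell viability assay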
Description: SANGER: Inhibition of human IGR-1 cell growth in a cell viability assay.

SNU-5 = format: functional, cell-based; conditions: Homo sapiens;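 further: cell viability readout used to measure growth inhibition in human NCI-SNU-5 cells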
Description: SANGER: Inhibition of human NCI-SNU-5 cell growth in a cell viability assay.

KP-4 = format: functional, cell-based, Homo sapiens; conditions: Homo sapiens, KP-4; read-out: IC50;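 further: human KP-4 cells, with growth inhibition read out through a cell viability assay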
Description: SANGER: Inhibition of human KP-4 cell growth in a cell viability assay.

HCT-116 = format: functional, cell-based, Homo sapiens; conditions: Homo sapiens, HCT-116
Description: SANGER: Inhibition of human HCT-116 cell growth in a cell viability assay.

CAL-120 = format: functional, cell-based, Homo sapiens; conditions: Homo sapiens, CAL-120;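 further: cell growth inhibition, read out as cell viability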
Description: SANGER: Inhibition of human CAL-120 cell growth in a cell viability assay.

SCC-9 = format: functional, cell-based, Homo sapiens; conditions: Homo sapiens, SCC-9;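 further: Read-out is a cell viability assay, with values giving inhibition of cell growth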
Description: SANGER: Inhibition of human SCC-9 cell growth in a cell viability assay.

K562 = format: functional, cell-based; conditions: Homo sapiens
Description: SANGER: Inhibition of human K-562 cell growth in a cell viability assay.

COLO-800 = format: functional, cell-based, Homo sapiens; conditions: Homo sapiens, COLO-800;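 further: growth inhibition of COLO-800 cells, read out with a cell viability assay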
Description: SANGER: Inhibition of human COLO-800 cell growth in a cell viability assay.

RPMI-8866 = format: functional, cell-based; conditions: Homo sapiens
Description: SANGER: Inhibition of human RPMI-8866 cell growth in a cell viability assay.

GOTO = format: functional, cell-based, Homo sapiens; conditions: Homo sapiens, GOTO;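 further: growth inhibition of GOTO cells, read out by a cell viability assay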
Description: SANGER: Inhibition of human GOTO cell growth in a cell viability assay.

HCC1569 = format: functional, cell-based, Homo sapiens; conditions: Homo sapiens, HCC1569;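 further: growth inhibition of human HCC1569 cells, read out with a cell viability assay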
Description: SANGER: Inhibition of human HCC1569 cell growth in a cell viability assay.

NCI-H1648 = format: functional, cell-based, Homo sapiens; conditions: Homo sapiens, NCI-H1648;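 further: cell viability assay measuring inhibition of NCI-H1648 cell growth, from the Sanger screening data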
Description: SANGER: Inhibition of human NCI-H1648 cell growth in a cell viability assay.

U-266 = format: functional, cell-based; conditions: Homo sapiens
Description: SANGER: Inhibition of human U-266 cell growth in a cell viability assay.

VMRC-RCZ = format: functional, cell-based; conditions: Homo sapiens;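 further: growth inhibition measured with a cell viability assay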
Description: SANGER: Inhibition of human VMRC-RCZ cell growth in a cell viability assay.

CAL-39 = format: functional, cell-based, Homo sapiens; conditions: Homo sapiens, CAL-39;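 further: cell viability assay measuring growth inhibition of CAL-39 cells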
Description: SANGER: Inhibition of human CAL-39 cell growth in a cell viability assay.

NCI-H596 = format: functional, cell-based, Homo sapiens; conditions: Homo sapiens, NCI-H596;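 further: growth inhibition of NCI-H596 cells, read out with a cell viability assay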
Description: SANGER: Inhibition of human NCI-H596 cell growth in a cell viability assay.

RO82-W-1 = format: functional, cell-based, Homo sapiens; conditions: Homo sapiens, RO82-W-1;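 further: growth inhibition of human RO82-W-1 cells, measured with a cell viability assay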
Description: SANGER: Inhibition of human RO82-W-1 cell growth in a cell viability assay.

TK-10 = format: functional, cell-based, Homo sapiens; conditions: Homo sapiens, TK-10;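 further: growth inhibition of TK-10 cells, read out in a cell viability assay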
Description: SANGER: Inhibition of human TK10 cell growth in a cell viability assay.

D-336MG = format: functional, cell-based, Homo sapiens; conditions: Homo sapiens, D-336MG
Description: SANGER: Inhibition of human D-336MG cell growth in a cell viability assay.

COLO-678 = format: functional, cell-based, Homo sapiens; conditions: Homo sapiens, COLO-678
Description: SANGER: Inhibition of human COLO-678 cell growth in a cell viability assay.

MN-60 = format: functional, cell-based; conditions: Homo sapiens;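 further: growth inhibition of the MN-60 cell line, determined with a cell viability assay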
Description: SANGER: Inhibition of human MN-60 cell growth in a cell viability assay.

NCI-H810 = format: functional, cell-based, Homo sapiens; conditions: Homo sapiens, NCI-H810;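 further: IC50 reflects inhibition of cancer cell line growth, read out with a cell viability assay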
Description: SANGER: Inhibition of human NCI-H810 cell growth in a cell viability assay.

UO-31 = format: functional, cell-based; conditions: Homo sapiens;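 further: cell viability assay measuring inhibition of cell growth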
Description: SANGER: Inhibition of human U031 cell growth in a cell viability assay.

NCI-H520 = format: functional, cell-based, Homo sapiens; conditions: Homo sapiens, NCI-H520;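 further: growth inhibition of NCI-H520 cells, measured by a cell viability assay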
Description: SANGER: Inhibition of human NCI-H520 cell growth in a cell viability assay.

KARPAS-45 = format: functional, cell-based; conditions: Homo sapiens;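 further: inhibition of cell line growth, read out through a viability assay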
Description: SANGER: Inhibition of human KARPAS-45 cell growth in a cell viability assay.

NTERA-2-cl-D1 = format: functional, cell-based, Homo sapiens; conditions: Homo sapiens, NTERA-2-cl-D1;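 further: inhibition of cell growth, measured with a cell viability assay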
Description: SANGER: Inhibition of human NTERA-S-cl-D1 cell growth in a cell viability assay.

CAS-1 = format: functional, cell-based, Homo sapiens; conditions: Homo sapiens, CAS-1;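 further: growth inhibition of CAS-1 cells, measured with a cell viability assay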
SN12C = format: functional, cell-based, Homo sapiens; conditions: Homo sapiens, SN12C;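 further: growth inhibition of human SN12C cells, measured by a cell viability assay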
Description: SANGER: Inhibition of human SN12C cell growth in a cell viability assay.

OE33 = format: functional, cell-based, Homo sapiens; conditions: Homo sapiens, OE33;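 further: growth inhibition of human OE33 cells, measured by a cell viability assay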
Description: SANGER: Inhibition of human OE33 cell growth in a cell viability assay.

MS-1 = format: functional, cell-based; conditions: Homo sapiens;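 further: growth inhibition of MS-1 cells, read out by cell viability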
Description: SANGER: Inhibition of human MS-1 cell growth in a cell viability assay.

ALL-PO = format: functional, cell-based; conditions: Homo sapiens;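 further: growth inhibition of ALL-PO cells, read out by a cell viability assay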
Description: SANGER: Inhibition of human ALL-PO cell growth in a cell viability assay.

NCI-H2228 = format: functional, cell-based, Homo sapiens; conditions: Homo sapiens, NCI-H2228;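 further: growth inhibition of human NCI-H2228 cells, read out by a cell viability assay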
Description: SANGER: Inhibition of human NCI-H2228 cell growth in a cell viability assay.

OVCAR-3 = format: functional, cell-based, Homo sapiens; conditions: Homo sapiens, OVCAR-3;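 further: growth inhibition of human OVCAR-3 cells, determined by a cell viability assay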
Description: SANGER: Inhibition of human OVCAR-3 cell growth in a cell viability assay.

MHH-PREB-1 = format: functional, cell-based; conditions: Homo sapiens;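 further: cell viability assay measuring inhibition of proliferation of human MHH-PREB-1 cells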
Description: SANGER: Inhibition of human MHH-PREB-1 cell growth in a cell viability assay.

HAL-01 = format: functional, cell-based; conditions: Homo sapiens;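 further: growth inhibition of human HAL-01 cells, read out with a cell viability assay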
Description: SANGER: Inhibition of human HAL-01 cell growth in a cell viability assay.

EFO-27 = format: functional, cell-based, Homo sapiens; conditions: Homo sapiens, EFO-27;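 further: growth inhibition of EFO-27 cells, read out with a cell viability assay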
Description: SANGER: Inhibition of human EFO-27 cell growth in a cell viability assay.

SK-NEP-1 = format: functional, cell-based; conditions: Homo sapiens;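 further: growth inhibition of human SK-NEP-1 cells, read out by a cell viability assay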
Description: SANGER: Inhibition of human SK-NEP-1 cell growth in a cell viability assay.

NCI-H1770 = format: functional, cell-based; conditions: Homo sapiens;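 further: growth inhibition of NCI-H1770 cells determined with a viability readout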
Description: SANGER: Inhibition of human NCI-H1770 cell growth in a cell viability assay.

NY = format: functional, cell-based, Homo sapiens; conditions: Homo sapiens, NY
Description: SANGER: Inhibition of human NY cell growth in a cell viability assay.

LU-134-A = format: functional, cell-based; conditions: Homo sapiens
Description: SANGER: Inhibition of human LU-134-A cell growth in a cell viability assay.

IST-SL1 = format: functional, cell-based, Homo sapiens; conditions: Homo sapiens, IST-SL1;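 further: growth inhibition of human IST-SL1 cells, read out with a cell viability assay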
Description: SANGER: Inhibition of human IST-SL1 cell growth in a cell viability assay.

LOX IMVI = format: functional, cell-based; conditions: Homo sapiens
Description: SANGER: Inhibition of human LOXIMVI cell growth in a cell viability assay.

BEN = format: functional, cell-based, Homo sapiens; conditions: Homo sapiens, BEN;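 further: growth inhibition of the BEN cell line, read out with a cell viability assay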
Description: SANGER: Inhibition of human BEN cell growth in a cell viability assay.

A704 = format: functional, cell-based, Homo sapiens; conditions: Homo sapiens, A704;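 further: growth inhibition of human A704 cells, read out with a cell viability assay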
Description: SANGER: Inhibition of human A704 cell growth in a cell viability assay.

HGC-27 = format: functional, cell-based, Homo sapiens; conditions: Homo sapiens, HGC-27;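 further: growth inhibition of human HGC-27 cells, read out in a cell viability assay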
Description: SANGER: Inhibition of human HGC-27 cell growth in a cell viability assay.

LB771-HNC = format: functional, cell-based, Homo sapiens; conditions: Homo sapiens, LB771-HNC;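 further: growth inhibition of LB771-HNC human cells, read out with a cell viability assay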

**Q.** With O=C(c1cc(Cc2n[nH]c(=O)c3ccccc23)ccc1F)N1CCN(C(=O)C2CC2)CC1 [OLAPARIB] as the molecule, how does the IC50 (KLE) read?
**A.** The IC50 was > 5 µM.

**Q.** And the IC50 (SNB-75)?
**A.** Its IC50 is > 5 µM.

**Q.** And the IC50 (MCF7)?
**A.** The IC50 was > 5 µM.

**Q.** And the IC50 (LoVo)?
**A.** The IC50 was > 5 µM.

**Q.** And the IC50 (DK-MG)?
**A.** The IC50 was > 5 µM.

**Q.** What about the IC50 (IGR-1) of the same molecule?
**A.** Its IC50 is > 5 µM.

**Q.** What about the IC50 (SNU-5) of the same molecule?
**A.** Its IC50 is > 5 µM.

**Q.** And the IC50 (KP-4)?
**A.** The IC50 was > 5 µM.

**Q.** And the IC50 (HCT-116)?
**A.** The IC50 was > 5 µM.

**Q.** And the IC50 (CAL-120)?
**A.** Its IC50 is > 5 µM.

**Q.** And the IC50 (SCC-9)?
**A.** The IC50 was > 5 µM.

**Q.** And the IC50 (K562)?
**A.** The IC50 was > 5 µM.

**Q.** And the IC50 (COLO-800)?
**A.** Its IC50 is 0.442 µM.

**Q.** What about the IC50 (RPMI-8866) of the same molecule?
**A.** The IC50 was > 5 µM.

**Q.** And the IC50 (GOTO)?
**A.** The IC50 was > 5 µM.

**Q.** What about the IC50 (HCC1569) of the same molecule?
**A.** Its IC50 is > 5 µM.

**Q.** What about the IC50 (NCI-H1648) of the same molecule?
**A.** The IC50 was > 5 µM.

**Q.** What about the IC50 (U-266) of the same molecule?
**A.** The IC50 was > 5 µM.

**Q.** And the IC50 (VMRC-RCZ)?
**A.** The IC50 was > 5 µM.

**Q.** And the IC50 (CAL-39)?
**A.** Its IC50 is > 5 µM.

**Q.** And the IC50 (NCI-H596)?
**A.** The IC50 was > 5 µM.

**Q.** And the IC50 (RO82-W-1)?
**A.** The IC50 was > 5 µM.

**Q.** What about the IC50 (TK-10) of the same molecule?
**A.** The IC50 was > 5 µM.

**Q.** What about the IC50 (D-336MG) of the same molecule?
**A.** Its IC50 is > 5 µM.

**Q.** What about the IC50 (COLO-678) of the same molecule?
**A.** The IC50 was > 5 µM.

**Q.** And the IC50 (MN-60)?
**A.** Its IC50 is > 5 µM.

**Q.** What about the IC50 (NCI-H810) of the same molecule?
**A.** Its IC50 is > 5 µM.

**Q.** And the IC50 (UO-31)?
**A.** Its IC50 is > 5 µM.

**Q.** And the IC50 (NCI-H520)?
**A.** Its IC50 is > 5 µM.

**Q.** And the IC50 (KARPAS-45)?
**A.** Its IC50 is > 5 µM.

**Q.** What about the IC50 (NTERA-2-cl-D1) of the same molecule?
**A.** The IC50 was 1.33 µM.

**Q.** What about the IC50 (CAS-1) of the same molecule?
**A.** Its IC50 is > 5 µM.

**Q.** What about the IC50 (SN12C) of the same molecule?
**A.** Its IC50 is > 5 µM.

**Q.** And the IC50 (OE33)?
**A.** The IC50 was > 5 µM.

**Q.** And the IC50 (MS-1)?
**A.** Its IC50 is > 5 µM.

**Q.** What about the IC50 (ALL-PO) of the same molecule?
**A.** Its IC50 is > 5 µM.

**Q.** What about the IC50 (NCI-H2228) of the same molecule?
**A.** Its IC50 is > 5 µM.

**Q.** What about the IC50 (OVCAR-3) of the same molecule?
**A.** The IC50 was > 5 µM.

**Q.** And the IC50 (MHH-PREB-1)?
**A.** Its IC50 is > 5 µM.

**Q.** What about the IC50 (HAL-01) of the same molecule?
**A.** Its IC50 is > 5 µM.

**Q.** And the IC50 (EFO-27)?
**A.** The IC50 was > 5 µM.

**Q.** And the IC50 (SK-NEP-1)?
**A.** Its IC50 is > 5 µM.

**Q.** And the IC50 (NCI-H1770)?
**A.** Its IC50 is > 5 µM.

**Q.** What about the IC50 (NY) of the same molecule?
**A.** The IC50 was > 5 µM.

**Q.** And the IC50 (LU-134-A)?
**A.** Its IC50 is > 5 µM.

**Q.** What about the IC50 (IST-SL1) of the same molecule?
**A.** The IC50 was > 5 µM.

**Q.** What about the IC50 (LOX IMVI) of the same molecule?
**A.** Its IC50 is > 5 µM.

**Q.** What about the IC50 (BEN) of the same molecule?
**A.** Its IC50 is > 5 µM.

**Q.** What about the IC50 (A704) of the same molecule?
**A.** Its IC50 is > 5 µM.

**Q.** What about the IC50 (HGC-27) of the same molecule?
**A.** Its IC50 is > 5 µM.

**Q.** What about the IC50 (LB771-HNC) of the same molecule?
**A.** Its IC50 is > 5 µM.

**Q.** How did the IC50 (KLE) turn out when Cc1cc(Nc2cc(N3CCN(C)CC3)nc(Sc3ccc(NC(=O)C4CC4)cc3)n2)n[nH]1 [TOZASERTIB] was run?
**A.** Its IC50 is > 2 µM.

**Q.** What about the IC50 (SNB-75) of the same molecule?
**A.** Its IC50 is > 2 µM.

**Q.** What about the IC50 (SNU-5) of the same molecule?
**A.** Its IC50 is > 2 µM.

**Q.** And the IC50 (K562)?
**A.** Its IC50 is 0.435 µM.

**Q.** What about the IC50 (COLO-800) of the same molecule?
**A.** The IC50 was > 2 µM.

**Q.** And the IC50 (RPMI-8866)?
**A.** Its IC50 is > 2 µM.

**Q.** What about the IC50 (GOTO) of the same molecule?
**A.** Its IC50 is > 2 µM.

**Q.** And the IC50 (NCI-H1648)?
**A.** The IC50 was > 2 µM.

**Q.** And the IC50 (U-266)?
**A.** The IC50 was > 2 µM.

**Q.** What about the IC50 (TK-10) of the same molecule?
**A.** Its IC50 is > 2 µM.

**Q.** And the IC50 (D-336MG)?
**A.** Its IC50 is > 2 µM.

**Q.** And the IC50 (MN-60)?
**A.** Its IC50 is > 2 µM.

**Q.** What about the IC50 (KARPAS-45) of the same molecule?
**A.** Its IC50 is > 2 µM.

**Q.** And the IC50 (NTERA-2-cl-D1)?
**A.** Its IC50 is 0.0143 µM.

**Q.** What about the IC50 (CAS-1) of the same molecule?
**A.** Its IC50 is > 2 µM.

**Q.** What about the IC50 (MS-1) of the same molecule?
**A.** Its IC50 is > 2 µM.

**Q.** And the IC50 (ALL-PO)?
**A.** The IC50 was 0.882 µM.

**Q.** What about the IC50 (MHH-PREB-1) of the same molecule?
**A.** Its IC50 is > 2 µM.

**Q.** What about the IC50 (HAL-01) of the same molecule?
**A.** The IC50 was 1.17 µM.

**Q.** What about the IC50 (SK-NEP-1) of the same molecule?
**A.** The IC50 was 1.21 µM.

**Q.** What about the IC50 (NCI-H1770) of the same molecule?
**A.** Its IC50 is > 2 µM.

**Q.** And the IC50 (LU-134-A)?
**A.** Its IC50 is > 2 µM.

**Q.** What about the IC50 (IST-SL1) of the same molecule?
**A.** The IC50 was > 2 µM.

**Q.** And the IC50 (LOX IMVI)?
**A.** The IC50 was > 2 µM.

**Q.** And the IC50 (A704)?
**A.** Its IC50 is > 2 µM.

**Q.** And the IC50 (LB771-HNC)?
**A.** The IC50 was > 2 µM.
